{"source": "BindingDB's records for doi:10.1021/acs.jmedchem.9b01663", "about": "(Dalian University of Technology, 2020)", "assay": "Inhibition of CRM1 in human HCT-15 cells assessed as reduction in cell viability incubated for 24 hrs"}
{"molecule": "[O-][S@@+](/C=C/CCN=C=S)c1cc(C(F)(F)F)cc(C(F)(F)F)c1", "values": [{"measurement": "IC50", "result": 151, "unit": "nM"}]}
